Data reported in ChEMBL document CHEMBL1139270, “Design, synthesis, and biological evaluation of a scaffold for iGluR ligands based on the structure of (-)-kaitocephalin” (2009).
Active and inactive are the calls of the source. The calls are words filed in the database; no cut-off is given here.

Columns and labels:
[1] = Antagonist activity at rat AMPA receptor expressed in Xenopus oocytes assessed as reduction of kainate-induced membrane current at 100 uM relative to kainate; type: functional, Oocyte; set-up: scale not given: the % may be the effect or the level left
[2] = Antagonist activity at rat KA receptor expressed in Xenopus oocytes assessed as reduction of kainate-induced membrane current at 100 uM relative to kainate; type: functional, Oocyte; set-up: scale not given: the % may be the effect or the level left
[3] = test system: Oocyte; assay: Agonist activity at rat AMPA receptor expressed in Xenopus oocytes at 100 uM; type: functional, cell-based
[4] = test system: Oocyte; assay: Agonist activity at rat KA receptor expressed in Xenopus oocytes at 100 uM; type: functional, cell-based

Row | Structure (SMILES) | Activity [1] [%] | Activity [2] [%] | Activity [3] | Activity [4]
1 | Cc1ccc([C@H]2CC[C@](C(=O)O)([C@@H](O)[C@@H](N)C(=O)O)N2)cc1 | 83 | 83 | inactive | inactive
2 | Cc1cccc([C@H]2CC[C@](C(=O)O)([C@@H](O)[C@@H](N)C(=O)O)N2)c1 | 75 | 75 | inactive | inactive
3 | N[C@@H](C(=O)O)[C@H](O)[C@@]1(C(=O)O)CC[C@H](c2ccccc2)N1 | 72 | 72 | inactive | inactive
4 | Cc1ccccc1[C@H]1CC[C@](C(=O)O)([C@@H](O)[C@@H](N)C(=O)O)N1 | 49 | 49 | inactive | inactive
